From ChEMBL document CHEMBL5329183, “Naphthylthiazoles: a class of broad-spectrum antifungals” (RSC Med Chem, 2023)
≈ marks a conversion by molar mass, not a printed value.

Tests used:
Assay type in all cases: functional
[1] = tested on: Candida albicans; assay: Antifungal activity against wild type Candida albicans SC5314 assessed as inhibition of fungal growth
[2] = tested on: Escherichia coli; assay: Antibacterial activity against wild type Escherichia coli BW25113 assessed as inhibition of bacterial growth
[3] = tested on: Escherichia coli; assay: Antibacterial activity against Escherichia coli JW55031 harboring tolC mutant assessed as inhibition of bacterial growth
[4] = tested on: Staphylococcus aureus; assay: Antibacterial activity against Methicillin-resistant Staphylococcus aureus USA300 assessed as inhibition of bacterial growth
[5] = tested on: Clostridioides difficile; assay: Antibacterial activity against Clostridium difficile ATCC BAA1870 assessed as inhibition of bacterial growth

SMILES	MIC [1] [µg/mL]	MIC [2] [µg/mL]	MIC [3] [µg/mL]	MIC [4] [µg/mL]	MIC [5] [µg/mL]
Cc1nc(-c2ccc3ccccc3c2)sc1-c1nnc(N2CCC[C@H]2CO)o1	> 64	> 64	> 64	> 64	> 64
Cc1nc(-c2ccc3ccccc3c2)sc1-c1nnc(N2CCCCC2CN)o1 (stereo not given)	> 64	> 64	> 64	> 64	32 (≈ 78.9 µM)
Cc1nc(-c2ccc3ccccc3c2)sc1-c1nnc(N2CCC[C@H]2C(N)=O)o1	> 64	> 64	> 64	> 64	> 64
Cc1nc(-c2ccc3ccccc3c2)sc1-c1nnc(N[C@H]2CC[C@H](N)CC2)o1	64 (≈ 158 µM)	> 64	> 64	64 (≈ 158 µM)	64 (≈ 158 µM)
Cc1nc(-c2ccc3ccccc3c2)sc1-c1nnc(N2CCC[C@@H]2C(N)=O)o1	> 64	> 64	> 64	> 64	> 64
Cc1nc(-c2ccc3ccccc3c2)sc1-c1nnc(N2CCC(N)C2)o1 (stereo not given)	8 (≈ 21.2 µM)	> 64	> 64	> 64	> 64
CCCNc1nnc(-c2sc(-c3ccc4ccccc4c3)nc2C)o1	> 64	> 64	> 64	> 64	> 64
Cc1nc(-c2ccc3ccccc3c2)sc1-c1nnc(N2CCC[C@@H]2CO)o1	> 64	> 64	> 64	> 64	16 (≈ 40.8 µM)
Cc1nc(-c2ccc3ccccc3c2)sc1-c1nnc(NCC(=N)N)o1	32 (≈ 87.8 µM)	> 64	> 64	> 64	64 (≈ 176 µM)
Cc1nc(-c2ccc3ccccc3c2)sc1-c1nnc(N2CC[C@H](N(C)C)C2)o1	8 (≈ 19.7 µM)	> 64	> 64	> 64	> 64
